Assay results: publication PMC4303209, “A novel phosphatidylinositol 3-kinase (PI3K) inhibitor directs a potent FOXO-dependent, p53-independent cell cycle arrest phenotype characterized by the differential induction of a subset of FOXO-regulated genes” (Breast Cancer Research : BCR, 2014)

Test system: MCF-7 breast cancer cells
Assay: Microarray gene expression analysis (Agilent whole human genome 4 x 44K; compound vs DMSO, LIMMA log2 fold change)
Type: cell-based

Cn1ncc2c(N3CCOCC3)nc(-c3cccc(O)c3)nc21 [ETP-45658]
PRNP log2FC: 0.370 | log2FC: 0.370 | AARS log2FC (Apoptosis genes, Gene 16): -0.198 | ABL1 log2FC (Apoptosis genes, Gene 25): -0.156 | ABR log2FC (Apoptosis genes, Gene 29): -0.380 | ACTN4 log2FC (Apoptosis genes, Gene 81): -0.260 | ACTN1 log2FC (Apoptosis genes, Gene 87): -0.609 | ACTN2 log2FC (Apoptosis genes, Gene 88): 0.099 | ACTN3 log2FC (Apoptosis genes, Gene 89): -0.693 | ACVR1 log2FC (Apoptosis genes, Gene 90): 0.534 | ACVR1B log2FC (Apoptosis genes, Gene 91): -0.563 | ADA log2FC (Apoptosis genes, Gene 100): -0.213 | ADAM8 log2FC (Apoptosis genes, Gene 101): -0.364 | ADAR log2FC (Apoptosis genes, Gene 103): -0.197 | ADCYAP1 log2FC (Apoptosis genes, Gene 116): 0.068 | ADD1 log2FC (Apoptosis genes, Gene 118): -0.295 | ADM log2FC (Apoptosis genes, Gene 133): -0.856 | ADORA1 log2FC (Apoptosis genes, Gene 134): -2.012 | ADORA2A log2FC (Apoptosis genes, Gene 135): -0.309 | ADRB1 log2FC (Apoptosis genes, Gene 153): -0.090 | AES log2FC (Apoptosis genes, Gene 166): -0.293 | AGT log2FC (Apoptosis genes, Gene 183): -0.104 | AHR log2FC (Apoptosis genes, Gene 196): 0.995 | AKT1 log2FC (Apoptosis genes, Gene 207): -0.608 | AKT2 log2FC (Apoptosis genes, Gene 208): -0.554 | ALDH1A3 log2FC (Apoptosis genes, Gene 220): 0.149 | ALDOC log2FC (Apoptosis genes, Gene 230): -0.120 | ALK log2FC (Apoptosis genes, Gene 238): -0.050 | ALOX15B log2FC (Apoptosis genes, Gene 247): -0.102 | ANGPT1 log2FC (Apoptosis genes, Gene 284): -0.676 | SLC25A4 log2FC (Apoptosis genes, Gene 291): -0.331 | SLC25A5 log2FC (Apoptosis genes, Gene 292): 0.173 | ANXA1 log2FC (Apoptosis genes, Gene 301): 0.991 | ANXA4 log2FC (Apoptosis genes, Gene 307): 0.463 | ANXA5 log2FC (Apoptosis genes, Gene 308): 0.266 | APAF1 log2FC (Apoptosis genes, Gene 317): 0.550 | NUDT2 log2FC (Apoptosis genes, Gene 318): 0.291 | APBB2 log2FC (Apoptosis genes, Gene 323): -0.357 | APC log2FC (Apoptosis genes, Gene 324): 0.117 | BIRC3 log2FC (Apoptosis genes, Gene 330): -0.843 | BIRC5 log2FC (Apoptosis genes, Gene 332): 0.154 | APLP1 log2FC (Apoptosis genes, Gene 333): -0.281 | APOE log2FC (Apoptosis genes, Gene 348): -0.224 | APP log2FC (Apoptosis genes, Gene 351): 0.379 | FASLG log2FC (Apoptosis genes, Gene 356): -0.198 | AQP2 log2FC (Apoptosis genes, Gene 359): -0.102 | AR log2FC (Apoptosis genes, Gene 367): 0.203 | ARAF log2FC (Apoptosis genes, Gene 369): -0.542 | ARF6 log2FC (Apoptosis genes, Gene 382): -0.682 | RHOB log2FC (Apoptosis genes, Gene 388): -0.133 | ARHGAP4 log2FC (Apoptosis genes, Gene 393): -0.218 | ARHGDIA log2FC (Apoptosis genes, Gene 396): -1.118 | ARRB2 log2FC (Apoptosis genes, Gene 409): 0.237 | ASCL1 log2FC (Apoptosis genes, Gene 429): -0.107 | ASNS log2FC (Apoptosis genes, Gene 440): -0.404 | ATF4 log2FC (Apoptosis genes, Gene 468): 0.324 | ATM log2FC (Apoptosis genes, Gene 472): 0.117 | ATP2A1 log2FC (Apoptosis genes, Gene 487): 0.239 | AVP log2FC (Apoptosis genes, Gene 551): -0.579 | AXL log2FC (Apoptosis genes, Gene 558): -0.230 | AZU1 log2FC (Apoptosis genes, Gene 566): -0.123 | BAD log2FC (Apoptosis genes, Gene 572): 0.276 | BAG1 log2FC (Apoptosis genes, Gene 573): 1.170 | BAK1 log2FC (Apoptosis genes, Gene 578): -0.356 | BARD1 log2FC (Apoptosis genes, Gene 580): 0.487 | BAX log2FC (Apoptosis genes, Gene 581): -0.255 | BCL2 log2FC (Apoptosis genes, Gene 596): -0.310 | BCL2A1 log2FC (Apoptosis genes, Gene 597): -0.192 | BCL2L1 log2FC (Apoptosis genes, Gene 598): -0.991 | BCL2L2 log2FC (Apoptosis genes, Gene 599): 0.428 | BCL3 log2FC (Apoptosis genes, Gene 602): -0.569 | BCL6 log2FC (Apoptosis genes, Gene 604): 0.771 | BDNF log2FC (Apoptosis genes, Gene 627): -0.132 | BID log2FC (Apoptosis genes, Gene 637): -0.095 | BIK log2FC (Apoptosis genes, Gene 638): -0.815 | BLM log2FC (Apoptosis genes, Gene 641): 0.293 | BMP4 log2FC (Apoptosis genes, Gene 652): 0.407 | BMP7 log2FC (Apoptosis genes, Gene 655): -0.344 | BMPR1B log2FC (Apoptosis genes, Gene 658): -0.091 | BMX log2FC (Apoptosis genes, Gene 660): 0.114 | BNIP1 log2FC (Apoptosis genes, Gene 662): 0.672 | BNIP2 log2FC (Apoptosis genes, Gene 663): 0.527 | BNIP3 log2FC (Apoptosis genes, Gene 664): 0.774 | BNIP3L log2FC (Apoptosis genes, Gene 665): 1.085 | FOXL2 log2FC (Apoptosis genes, Gene 668): -0.812 | BRCA1 log2FC (Apoptosis genes, Gene 672): 0.792 | BRAF log2FC (Apoptosis genes, Gene 673): -0.105 | BRCA2 log2FC (Apoptosis genes, Gene 675): 0.092 | BTC log2FC (Apoptosis genes, Gene 685): 0.205 | BTG1 log2FC (Apoptosis genes, Gene 694): 1.142 | BUB1 log2FC (Apoptosis genes, Gene 699): 0.803 | BUB1B log2FC (Apoptosis genes, Gene 701): 0.344 | TSPO log2FC (Apoptosis genes, Gene 706): -0.089 | C5AR1 log2FC (Apoptosis genes, Gene 728): 0.064 | CACNA1A log2FC (Apoptosis genes, Gene 773): -0.187 | CALR log2FC (Apoptosis genes, Gene 811): -0.081 | CAMK2B log2FC (Apoptosis genes, Gene 816): -0.123 | CAST log2FC (Apoptosis genes, Gene 831): 0.572 | CASP1 log2FC (Apoptosis genes, Gene 834): 0.048 | CASP2 log2FC (Apoptosis genes, Gene 835): -0.918 | CASP3 log2FC (Apoptosis genes, Gene 836): 0.546 | CASP4 log2FC (Apoptosis genes, Gene 837): 0.181 | CASP5 log2FC (Apoptosis genes, Gene 838): -0.128 | CASP6 log2FC (Apoptosis genes, Gene 839): 0.574 | CASP7 log2FC (Apoptosis genes, Gene 840): -0.211 | CASP8 log2FC (Apoptosis genes, Gene 841): 0.613 | CASP9 log2FC (Apoptosis genes, Gene 842): 0.372 | CASR log2FC (Apoptosis genes, Gene 846): 0.039 | CAT log2FC (Apoptosis genes, Gene 847): 0.577 | CAV1 log2FC (Apoptosis genes, Gene 857): 0.205 | RUNX3 log2FC (Apoptosis genes, Gene 864): -0.494 | CBL log2FC (Apoptosis genes, Gene 867): 0.301 | CBS log2FC (Apoptosis genes, Gene 875): -0.275 | KRIT1 log2FC (Apoptosis genes, Gene 889): 0.668 | CCNG1 log2FC (Apoptosis genes, Gene 900): 0.908 | CD2 log2FC (Apoptosis genes, Gene 914): -0.352 | CD3E log2FC (Apoptosis genes, Gene 916): -0.399 | CD3G log2FC (Apoptosis genes, Gene 917): -0.295 | CD5 log2FC (Apoptosis genes, Gene 921): -0.055 | CD5L log2FC (Apoptosis genes, Gene 922): -0.110 | CD14 log2FC (Apoptosis genes, Gene 929): -0.514 | CD28 log2FC (Apoptosis genes, Gene 940): 0.087 | CD40 log2FC (Apoptosis genes, Gene 958): -0.420 | CD44 log2FC (Apoptosis genes, Gene 960): -0.380 | CD59 log2FC (Apoptosis genes, Gene 966): 0.286 | CD74 log2FC (Apoptosis genes, Gene 972): -0.135 | CDC34 log2FC (Apoptosis genes, Gene 997): 0.349 | CDC42 log2FC (Apoptosis genes, Gene 998): 0.143 | CDK4 log2FC (Apoptosis genes, Gene 1019): 0.113 | CDKN1A log2FC (Apoptosis genes, Gene 1026): -1.401 | CDKN1B log2FC (Apoptosis genes, Gene 1027): 1.129 | CDKN2A log2FC (Apoptosis genes, Gene 1029): 0.240 | CDKN2D log2FC (Apoptosis genes, Gene 1032): 0.891 | CEBPB log2FC (Apoptosis genes, Gene 1051): -0.358 | CFL1 log2FC (Apoptosis genes, Gene 1072): -0.261 | CTSC log2FC (Apoptosis genes, Gene 1075): -0.466 | CGB log2FC (Apoptosis genes, Gene 1082): -0.136 | CLU log2FC (Apoptosis genes, Gene 1191): -0.261 | CLN3 log2FC (Apoptosis genes, Gene 1201): -0.330 | CCR7 log2FC (Apoptosis genes, Gene 1236): 0.098 | PLK3 log2FC (Apoptosis genes, Gene 1263): -1.808 | CNR1 log2FC (Apoptosis genes, Gene 1268): 0.800 | ATF2 log2FC (Apoptosis genes, Gene 1386): 0.857 | CRH log2FC (Apoptosis genes, Gene 1392): 0.120 | CRIP1 log2FC (Apoptosis genes, Gene 1396): 0.282 | CRYAA log2FC (Apoptosis genes, Gene 1409): -0.057 | CRYAB log2FC (Apoptosis genes, Gene 1410): -0.139 | MAPK14 log2FC (Apoptosis genes, Gene 1432): -0.291 | CSE1L log2FC (Apoptosis genes, Gene 1434): 0.841 | CSF2 log2FC (Apoptosis genes, Gene 1437): -0.666 | CSNK2A1 log2FC (Apoptosis genes, Gene 1457): -0.545 | CSNK2A2 log2FC (Apoptosis genes, Gene 1459): 0.183 | CSTB log2FC (Apoptosis genes, Gene 1476): 0.083 | NKX2-5 log2FC (Apoptosis genes, Gene 1482): -0.753 | CTGF log2FC (Apoptosis genes, Gene 1490): -0.597 | CTH log2FC (Apoptosis genes, Gene 1491): 0.708
